According to US8269051B2, “Wickerol and method for producing the same” (The Kitasato Institute, priority 2008, dated 2012):
In brackets after ≈: the same amount, converted by molar mass.

How the values were obtained:
MDCK cells = test: Proliferation of MDCK cells alone (cytotoxicity); type: cell-based, canine; conditions: Canis lupus familiaris; MDCK cells without virus; read-out: IC50, inhibition of proliferation of the MDCK cells alone
[1] = system: influenza virus A/PR/8/34; conditions: ratio of MDCK cytotoxicity IC50 to antiviral IC50
[2] = system: the microorganisms shown in the Table 3; test: Antimicrobial activity, overall statement; type: cell-based; conditions: against the microorganisms shown in the Table 3
Method: Antimicrobial activity of the wickerol of the present invention was as follows. Each circular filter paper (Advantec, diameter: 6 mm) was soaked with 10 μl of methanol solution of the wickerol (1 mg/ml), and then allowed to air-dry for a predetermined time to remove a solvent. After the solvent was removed, the circular filter paper was placed on each of the following test microorganism-containing agar plates, and cultured for 24 hours at 35° C. Thereafter, a diameter of a growth inhibitory circle formed around each of the circular filter papers was measured, and the results were shown in Table 3.

[3] = system: influenza virus A/PR/8/34; test: microbe, parasite or virus in culture; conditions: unidentified influenza virus, PR/8, MDCK, 72 h, read-out: IC50, inhibition of replication of influenza virus A/PR/8/34 through the infection of the MDCK cells

`CC1CCC2CC3(C)CCC4C3C1(CCC4(C)O)C2(C)C` (stereo not shown) [wickerol] was tested, and the IC50 (MDCK cells) was 7 µg/mL (≈ 24.1 µM), the “inhibitory activity against the influenza virus replication relative to cytotoxicity” value [1] was “approximately 100 times” and the antimicrobial activity [2] was “almost no antimicrobial activity”. The IC50 [3] was 0.07 µg/mL (≈ 0.241 µM).
